SMILES strings stand for the structures.

The target of this test is Sigma non-opioid intracellular receptor 1 (Cavia porcellus, UniProt Q60492). The experiment in a line: Displacement of [3H](+)-pentazocine from sigma 1 receptor in guinea pig brain membrane. Type of test: cell membranes. (Loss of bound radioactivity is the signal in a displacement assay; it reports binding, not function.)
Chain of Sigma non-opioid intracellular receptor 1 (Q60492 whole entry): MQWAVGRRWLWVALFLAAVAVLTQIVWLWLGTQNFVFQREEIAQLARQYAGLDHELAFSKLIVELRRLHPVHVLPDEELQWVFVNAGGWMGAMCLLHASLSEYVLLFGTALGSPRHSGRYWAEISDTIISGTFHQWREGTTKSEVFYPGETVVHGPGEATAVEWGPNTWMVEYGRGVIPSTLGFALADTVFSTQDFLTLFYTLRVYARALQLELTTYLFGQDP
As for `CO[C@H]1Cc2c(cnn2-c2ccccc2)C2(CCN(Cc3ccccc3)CC2)O1`, the inhibition constant Ki was 0.0015 µM.
Compound `CC(=O)C[C@@H]1Cc2sccc2C2(CCN(Cc3ccccc3)CC2)O1` yielded a Ki of 0.0094 µM.
With `CO[C@H]1Cc2sccc2C2(CCN(Cc3ccccc3)CC2)O1` the figure was 0.00032 µM; with `CO[C@H]1Cc2sccc2C2(CCN(CCc3ccccc3)CC2)O1`, 0.0059 µM; with `CO[C@H]1Cc2sccc2C2(CCN(CCCCc3ccccc3)CC2)O1`, 0.0077 µM.
The compound `CO[C@H]1Cc2sccc2C2(CCN(CC3CCCCC3)CC2)O1` displayed a Ki of 0.0003 µM.
Consider `OCC[C@H]1Cc2ccccc2C2(CCN(CCCc3ccccc3)CC2)O1`, for which the Ki came to 0.015 µM.
Consider `OCC[C@@H]1Cc2ccccc2C2(CCN(CCCc3ccccc3)CC2)O1`, for which the affinity, expressed as Ki, was 0.068 µM.
The compound `O[C@H]1Cc2ccccc2C2(CCN(CCc3ccccc3)CC2)O1` gave a Ki of 0.044 µM.
Next, `CCOC(=O)C[C@H]1Cc2ccccc2C2(CCN(Cc3ccccc3)CC2)O1`: 0.183 µM.
Turning to `CO[C@H]1CCc2ccccc2C2(CCN(Cc3ccccc3)CC2)O1`, affinity was put at a Ki of 0.0026 µM.
Next, `COC(=O)c1cc2c(s1)C[C@H](OC)OC21CCN(Cc2ccccc2)CC1`: 0.0109 µM.
Next, `Cn1ncc2c1CCOC21CCN(CCCc2ccccc2)CC1`: 0.017 µM; `c1ccc(CCCN2CCC3(CC2)OCCc2c3cnn2-c2ccccc2)cc1`: 0.00081 µM.
With `CO[C@H]1Cc2sc(-c3ccccc3)cc2C2(CCN(Cc3ccco3)CC2)O1` the figure was 0.0022 µM.
`CO[C@H]1Cc2c(cnn2-c2ccccc2)C2(CCN(CC(C)C)CC2)O1`: affinity was put at a Ki of 0.0063 µM.
As for `CC(=O)C[C@H]1Cc2sccc2C2(CCN(Cc3ccccc3)CC2)O1`, the Ki amounted to 0.012 µM.
`CO[C@H]1Cc2sccc2C2(CCN(CC=C(C)C)CC2)O1` returned a Ki of 0.001 µM.
Next, `CO[C@H]1Cc2sc(C(=O)c3ccccc3)cc2C2(CCN(Cc3ccccc3)CC2)O1`: 0.0037 µM; `CCC[C@H]1OC2(CCN(Cc3ccccc3)CC2)c2ccccc21`: 0.0032 µM.
With `CO[C@H]1Cc2c(cnn2-c2ccccc2)C2(CCN(C(C)C)CC2)O1` the figure was 0.21 µM; with `O[C@H]1OC2(CCN(CCc3ccccc3)CC2)c2ccccc21`, 0.109 µM.
With `CO[C@H]1Cc2c(cnn2C)C2(CCN(Cc3ccccc3)CC2)O1` the figure was 0.021 µM; with `CCCN1CCC2(CC1)O[C@@H](OC)Cc1c2cnn1C`, 2.98 µM.
As for `CC(C)=CCN1CCC2(CC1)OCCc1c2cnn1C`, the Ki was found to be 0.014 µM.
With `OCC[C@H]1Cc2ccccc2C2(CCN(CC3CCCCC3)CC2)O1` the figure was 0.01 µM; with `CO[C@H]1Cc2ccccc2C2(CCN(C)CC2)O1`, 4.4 µM.
Next, `CO[C@H]1Cc2sc(CN(C)C)cc2C2(CCN(Cc3ccccc3)CC2)O1`: 0.017 µM.
As to `OCC[C@H]1Cc2ccccc2C2(CCN(Cc3ccccc3)CC2)O1`, the affinity corresponds to a Ki of 0.01 µM.
`OCC[C@@H]1Cc2ccccc2C2(CCN(Cc3ccccc3)CC2)O1` displayed a Ki of 0.048 µM.
Next, `CCCN1CCC2(CC1)O[C@@H](OC)Cc1c2cnn1-c1ccccc1`: 0.033 µM; `CCOC(=O)C[C@H]1OC2(CCN(Cc3ccccc3)CC2)c2ccccc21`: 0.015 µM; `CO[C@H]1Cc2ccccc2C2(CCN(CCCCc3ccccc3)CC2)O1`: 0.01 µM.
Compound `OCC[C@@H]1Cc2ccccc2C2(CCN(CC3CCCCC3)CC2)O1` had a Ki of 0.009 µM.
Next, `CO[C@@H]1OC2(CCN(Cc3ccccc3)CC2)c2cnn(-c3ccccc3)c21`: 0.00049 µM.
With `CO[C@@H]1Cc2ccccc2[C@@]2(CCCN(Cc3ccccc3)C2)O1` (racemic) the figure was 1.72 µM; with `CO[C@@H]1Cc2ccccc2[C@@]2(CCCN(CCc3ccccc3)C2)O1` (racemic), 0.47 µM.
Next, `CCCCN1CCC[C@@]2(C1)O[C@H](OC)Cc1ccccc12` (racemic): 1.29 µM.

A word on the Ki: it is the dissociation constant of the complex between target and ligand, obtained from inhibition or displacement. A higher Ki goes with a looser hold on the target.

The record behind these values is ChEMBL document CHEMBL1177883, “5D-QSAR for spirocyclic sigma1 receptor ligands by Quasar receptor surface modeling” (Eur J Med Chem, 2010).
